# From patent publication US20170205426A1, “RAPID MASS SPECTROMETRY METHODS FOR ANTIMICROBIAL SUSCEPTIBILITY TESTING USING TOP-DOWN MASS SPECTROMETRY” (priority 2016, published 2017)
# How the values were obtained:
# KPC-2 = test: Bottom-up mass spectrometry sequence coverage of KPC-2 in K. pneumoniae cultures induced with ertapenem; type: cell-based, Klebsiella pneumoniae; conditions: for KPC-2 Sequence Coverage: induced with 0.5 mM ertapenem
# Experimental: (§1) In some embodiments, a sample of the microbial culture or biological sample is exposed to conditions that induce antimicrobial resistance in the microorganisms prior to testing. In other embodiments, a sample of the microbial culture or biological sample is tested without intentionally inducing antimicrobial resistance in the microorganisms. In certain embodiments, many resistance mechanisms may not have to be induced in order to detect the target proteins of interest. For example, we have observed that the production of PBP2a from MRSA samples varies in its baseline expression without induction. In examining expression of carbapenem-resistant Enterobacteriaceae (CRE)-related resistances, several strains of Klebsiella pneumoniae that contained different combinations of the resistance marker beta-lactamase were tested to determine the effect on detection for induced and non-induced samples. Table 1 lists various resistant and susceptible strains of K. pneumoniae which were tested with 0.5 mM of ertapenem as an inducer. In these experiments, bottom-up mass spectrometry was used to measure sequence coverage of two representative beta-lactamases, KPC-2 and CTX-M15. The percent sequence coverage observed is an approximate measure of the amount of a given protein present in any given extract. The higher the percent sequence coverage observed, the higher the level of that given protein in an extract.
# CTX-M15 = test: Bottom-up mass spectrometry sequence coverage of CTX-M15 in K. pneumoniae cultures induced with ertapenem; type: cell-based, Klebsiella pneumoniae; conditions: for CTX-M15 Sequence Coverage: induced with 0.5 mM ertapenem
# Experimental: as §1
# [1] = variety of K. pneumoniae strains, 0.5 mM ertapenem as inducer
structure (smiles),measurement,setting,value
C[C@@H](O)[C@H]1C(=O)N2C(C(=O)O)=C(S[C@@H]3CN[C@H](C(=O)Nc4cccc(C(=O)O)c4)C3)[C@H](C)[C@H]12 [ertapenem],KPC-2 Sequence Coverage,KPC-2; strain 13883 (Susceptible),not detected
same,KPC-2 Sequence Coverage,KPC-2; strain BAA-1903 (Resistant),73% ± 0%
same,KPC-2 Sequence Coverage,KPC-2; strain BAA-1905 (Resistant),85% ± 5%
same,KPC-2 Sequence Coverage,KPC-2; strain BAA-2473 (Resistant),not detected
same,KPC-2 Sequence Coverage,KPC-2; strain BAA-2578 (Resistant),not detected
same,"percent sequence coverage of KPC-2, induced versus non-induced",KPC-2; [1],the same regardless of induction
same,CTX-M15 Sequence Coverage,CTX-M15; strain 13883 (Susceptible),not detected
same,CTX-M15 Sequence Coverage,CTX-M15; strain BAA-1903 (Resistant),not detected
same,CTX-M15 Sequence Coverage,CTX-M15; strain BAA-1905 (Resistant),not detected
same,CTX-M15 Sequence Coverage,CTX-M15; strain BAA-2473 (Resistant),70% ± 0%
same,CTX-M15 Sequence Coverage,CTX-M15; strain BAA-2578 (Resistant),60% ± 2%
same,"percent sequence coverage of CTX-M15, induced versus non-induced",CTX-M15; [1],the same regardless of induction
